The source of these data is patent US11208386B2, “Inhibitors of protein arginine deiminases (PADs) and methods of preparation and use thereof” (University of Massachusetts, priority 2016, dated 2021).

Common to all, as to format: biochemical
Assay [1] has as its target T1, PAD4 (Homo sapiens, UniProt Q9UM07).
T1 construct: made in house
Nature of the assay: Inactivation kinetics, PAD4. The note with it: for kinact/KI: a: single kobs determined, b: from a linear fit; for Fold PAD4 Selectivity: kinact/KI relative to least inhibited isozyme (1.0). The gist of the method:
(§1)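 PAD1, 2 or 4 (2.0 μM) or PAD3 (5.0 μM) preincubated at 37 °C with varying inhibitor in 50 mM HEPES, 10 mM CaCl2, 2 mM DTT, pH 7.6. Timed aliquots assayed 15 min with 10 mM BAEE (BAA for PAD3); citrulline quantified by COLDER.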

For assay [2], the target named is T2, PAD3 (Homo sapiens, UniProt Q9ULW8).
T2 construct: made in house
T2 sequence (Q9ULW8 1-664): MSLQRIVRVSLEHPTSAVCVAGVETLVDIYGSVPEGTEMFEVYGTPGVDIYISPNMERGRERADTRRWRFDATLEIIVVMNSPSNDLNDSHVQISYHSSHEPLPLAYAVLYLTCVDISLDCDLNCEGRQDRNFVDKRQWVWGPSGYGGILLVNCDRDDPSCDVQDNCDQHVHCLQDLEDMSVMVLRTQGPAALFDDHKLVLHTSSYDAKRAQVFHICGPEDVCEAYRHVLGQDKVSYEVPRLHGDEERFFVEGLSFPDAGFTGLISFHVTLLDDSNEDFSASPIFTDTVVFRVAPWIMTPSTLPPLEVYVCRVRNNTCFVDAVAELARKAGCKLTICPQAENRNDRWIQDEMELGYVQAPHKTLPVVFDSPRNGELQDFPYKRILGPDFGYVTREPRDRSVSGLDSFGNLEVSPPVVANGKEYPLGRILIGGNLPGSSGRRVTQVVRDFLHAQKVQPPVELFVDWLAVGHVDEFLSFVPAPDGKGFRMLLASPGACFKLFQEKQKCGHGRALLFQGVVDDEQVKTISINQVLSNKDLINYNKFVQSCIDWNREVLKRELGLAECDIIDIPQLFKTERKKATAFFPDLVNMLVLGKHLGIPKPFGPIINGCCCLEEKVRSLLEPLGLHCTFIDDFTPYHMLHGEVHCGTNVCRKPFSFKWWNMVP
Nature of the assay: Inactivation kinetics, PAD3. The note with it: for kinact/KI: a: single kobs determined; for Fold PAD3 Selectivity: kinact/KI relative to least inhibited isozyme (1.0). In a few lines: as §1

Assay [3] addresses T3, PAD1 (Homo sapiens, UniProt Q9ULC6).
T3 construct: made in house
T3 sequence (Q9ULC6 1-663): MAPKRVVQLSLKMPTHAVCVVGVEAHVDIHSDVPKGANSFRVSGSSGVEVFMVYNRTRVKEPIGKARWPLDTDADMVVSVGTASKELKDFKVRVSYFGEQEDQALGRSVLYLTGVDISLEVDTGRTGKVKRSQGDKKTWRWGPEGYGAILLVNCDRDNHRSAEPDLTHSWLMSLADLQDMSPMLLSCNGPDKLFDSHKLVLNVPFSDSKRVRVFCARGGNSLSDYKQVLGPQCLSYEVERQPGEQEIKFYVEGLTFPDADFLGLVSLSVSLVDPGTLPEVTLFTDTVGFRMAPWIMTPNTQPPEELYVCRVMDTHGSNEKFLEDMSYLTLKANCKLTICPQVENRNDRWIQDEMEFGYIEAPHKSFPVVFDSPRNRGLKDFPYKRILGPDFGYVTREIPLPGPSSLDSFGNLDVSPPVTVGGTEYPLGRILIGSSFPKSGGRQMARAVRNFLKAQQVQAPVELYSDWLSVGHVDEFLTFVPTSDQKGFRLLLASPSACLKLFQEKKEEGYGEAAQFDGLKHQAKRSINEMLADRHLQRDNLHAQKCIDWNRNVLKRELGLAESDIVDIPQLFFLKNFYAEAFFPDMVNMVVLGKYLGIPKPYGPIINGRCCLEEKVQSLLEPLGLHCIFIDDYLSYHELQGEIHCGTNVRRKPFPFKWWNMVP
Nature of the assay: Inactivation kinetics, PAD1. The note with it: for kinact/KI: a: single kobs determined, b: from a linear fit; for Fold PAD1 Selectivity: kinact/KI relative to least inhibited isozyme (1.0). The gist of the method: as §1

For assay [4], the target named is T4, PAD2 (Homo sapiens, UniProt Q9Y2J8).
T4 construct: made in house
T4 sequence (Q9Y2J8 whole entry): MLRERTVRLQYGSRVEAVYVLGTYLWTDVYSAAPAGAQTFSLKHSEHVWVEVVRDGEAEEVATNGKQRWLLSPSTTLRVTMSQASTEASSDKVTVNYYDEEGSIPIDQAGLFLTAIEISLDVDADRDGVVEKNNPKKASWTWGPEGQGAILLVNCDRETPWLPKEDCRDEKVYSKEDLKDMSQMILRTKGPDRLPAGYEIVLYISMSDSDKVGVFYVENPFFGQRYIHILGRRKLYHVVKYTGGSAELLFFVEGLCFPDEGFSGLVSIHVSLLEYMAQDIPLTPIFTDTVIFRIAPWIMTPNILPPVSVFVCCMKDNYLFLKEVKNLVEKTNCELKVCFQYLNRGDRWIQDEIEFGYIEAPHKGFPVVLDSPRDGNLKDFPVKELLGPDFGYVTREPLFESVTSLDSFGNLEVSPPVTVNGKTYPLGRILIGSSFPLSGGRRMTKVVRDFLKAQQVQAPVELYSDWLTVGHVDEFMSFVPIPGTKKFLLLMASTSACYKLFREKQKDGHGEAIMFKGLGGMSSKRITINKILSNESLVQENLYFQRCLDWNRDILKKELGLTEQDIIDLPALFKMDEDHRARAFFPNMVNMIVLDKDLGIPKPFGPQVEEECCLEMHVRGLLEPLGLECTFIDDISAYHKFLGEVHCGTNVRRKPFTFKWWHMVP
Put plainly: Inactivation kinetics, PAD2. The note with it: for kinact/KI: a: single kobs determined, b: from a linear fit, other footnotes: from kinact and KI; for Fold PAD2 Selectivity: kinact/KI relative to least inhibited isozyme (1.0); for Ki / kinact: PAD2, table footnote. In a few lines:
as §1

T1 sequence (Q9UM07 whole entry): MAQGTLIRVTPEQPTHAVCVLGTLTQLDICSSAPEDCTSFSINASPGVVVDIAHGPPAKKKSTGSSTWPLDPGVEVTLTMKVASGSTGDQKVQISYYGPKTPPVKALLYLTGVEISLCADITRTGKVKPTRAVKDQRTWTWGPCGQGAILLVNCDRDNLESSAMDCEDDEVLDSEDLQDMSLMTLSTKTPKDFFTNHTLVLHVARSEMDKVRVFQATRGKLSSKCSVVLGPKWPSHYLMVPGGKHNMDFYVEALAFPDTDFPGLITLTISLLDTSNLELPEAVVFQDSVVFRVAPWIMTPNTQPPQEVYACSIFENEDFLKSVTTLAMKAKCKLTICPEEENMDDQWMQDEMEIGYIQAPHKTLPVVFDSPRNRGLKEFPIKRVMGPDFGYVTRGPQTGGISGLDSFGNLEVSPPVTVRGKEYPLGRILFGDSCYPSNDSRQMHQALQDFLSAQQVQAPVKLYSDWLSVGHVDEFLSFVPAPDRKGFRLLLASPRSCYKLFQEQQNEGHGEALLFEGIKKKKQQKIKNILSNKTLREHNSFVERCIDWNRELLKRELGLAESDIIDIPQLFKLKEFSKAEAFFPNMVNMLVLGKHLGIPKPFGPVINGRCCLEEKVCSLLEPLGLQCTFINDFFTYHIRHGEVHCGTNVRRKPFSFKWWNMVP

Regarding `CC(C)n1c([C@H](CCCNC(=N)CCl)NC(=O)c2ccccc2C(=O)O)nc2ccccc21` [Compound 6h, N1-(2-Carboxyl)benzoyl-N5-(2-chloro-1-iminoethyl)-1-(1-isopropyl-benzo[d]imidazol-2-yl)-L-ornithine], in assay [1], the kinact/KI (usually the second-order rate constant of inactivation) was 12 M⁻¹ s⁻¹ and the “Fold PAD4 Selectivity” value worked out at 1.0 fold. Moreover, in assay [2], the kinact/KI was 45 M⁻¹ s⁻¹ and the “Fold PAD3 Selectivity” value was 3.8 fold. In assay [3], the kinact/KI was 817 M⁻¹ s⁻¹ and the “Fold PAD1 Selectivity” value worked out at 68 fold. For the same compound, in assay [4], the kinact/KI was 452 M⁻¹ s⁻¹ and the “Fold PAD2 Selectivity” value is listed as 38 fold.
With `COc1cccc2c1nc([C@H](CCCNC(=N)CF)NC(=O)c1ccccc1C(=O)O)n2C` [Compound 6i, N1-(2-Carboxyl)benzoyl-N5-(2-fluoro-1-iminoethyl)-1-(4-methoxy-1-methyl-benzo[d]imidazol-2-yl)-L-ornithine], in assay [1], the kinact/KI was 101 M⁻¹ s⁻¹ and the “Fold PAD4 Selectivity” value is reported as 1.0 fold. Besides, in assay [2], the kinact/KI was 113 M⁻¹ s⁻¹ and the “Fold PAD3 Selectivity” value came to 1.1 fold. In addition, in assay [3], the second-order inactivation constant (kinact/KI) is 627 M⁻¹ s⁻¹ and the “Fold PAD1 Selectivity” value was determined as 6.2 fold. For the same compound, in assay [4], the kinact/KI was 340 M⁻¹ s⁻¹ and the “Fold PAD2 Selectivity” value stood at 3.4 fold.
As to `COc1cccc2c1nc([C@H](CCCNC(=N)CCl)NC(=O)c1ccccc1C(=O)O)n2C` [Compound 6j], in assay [1], the kinact/KI was 235 M⁻¹ s⁻¹ and the “Fold PAD4 Selectivity” value is 1.5 fold. In assay [2], the kinact/KI was 160 M⁻¹ s⁻¹ and the “Fold PAD3 Selectivity” value is reported as 1.0 fold. In assay [3], the kinact/KI was 1120 M⁻¹ s⁻¹ and the “Fold PAD1 Selectivity” value is on record as 7.0 fold. In assay [4], the kinact/KI is 308 M⁻¹ s⁻¹ and the “Fold PAD2 Selectivity” value came out at 1.9 fold.
As for `N=C(CF)NCCC[C@H](NC(=O)c1cccc2c1C(=O)NC2)c1nc2ccccc2[nH]1` [Compound 7a, N1-(3-oxoisoindoline)benzol-N5-(2-fluoro-1-iminoethyl)-1-(1H-benzo[d]imidazol-2-yl)-L-ornithine], in assay [1], the kinact/KI was 552 M⁻¹ s⁻¹ and the “Fold PAD4 Selectivity” value was determined as 10 fold. In assay [2], the kinact/KI is 53.3 M⁻¹ s⁻¹ and the “Fold PAD3 Selectivity” value came to 1.0 fold. Besides, in assay [3], the kinact/KI is 1290 M⁻¹ s⁻¹ and the “Fold PAD1 Selectivity” value worked out at 24 fold. Besides, in assay [4], the Ki was found to be 210 µM; the kinact – broadly, the rate constant of inactivation at saturating inhibitor – was 0.0373 s⁻¹; the kinact/KI was 177 M⁻¹ s⁻¹; the “Fold PAD2 Selectivity” value is reported as 3.3 fold.
In the case of `N=C(CCl)NCCC[C@H](NC(=O)c1cccc2c1C(=O)NC2)c1nc2ccccc2[nH]1` [Compound 7b, N1-(3-oxoisoindoline)benzol-N5-(2-chloro-1-iminoethyl)-1-(1H-benzo[d]imidazol-2-yl)-L-ornithine], in assay [1], the kinact/KI was 968 M⁻¹ s⁻¹ and the “Fold PAD4 Selectivity” value was determined as 2.1 fold. In assay [2], the kinact/KI is 467 M⁻¹ s⁻¹ and the “Fold PAD3 Selectivity” value was 1.0 fold. In addition, in assay [3], the kinact/KI was 3010 M⁻¹ s⁻¹ and the “Fold PAD1 Selectivity” value was found to be 6.5 fold. For the same compound, in assay [4], the kinact/KI is 1090 M⁻¹ s⁻¹ and the “Fold PAD2 Selectivity” value is 2.3 fold.
Take `Cn1c([C@H](CCCNC(=N)CF)NC(=O)c2cccc3c2C(=O)NC3)nc2ccccc21` [Compound 7c]: in assay [1], the kinact/KI was 48.5 M⁻¹ s⁻¹ and the “Fold PAD4 Selectivity” value was found to be 1.0 fold. For the same compound, in assay [2], the kinact/KI is 46.7 M⁻¹ s⁻¹ and the “Fold PAD3 Selectivity” value is 1.0 fold. Moreover, in assay [3], the kinact/KI is 1140 M⁻¹ s⁻¹ and the “Fold PAD1 Selectivity” value was found to be 25 fold. For the same compound, in assay [4], the kinact/KI is 413 M⁻¹ s⁻¹ and the “Fold PAD2 Selectivity” value amounted to 8.9 fold.
Consider `Cn1c([C@H](CCCNC(=N)CCl)NC(=O)c2cccc3c2C(=O)NC3)nc2ccccc21` [Compound 7d, N1-(3-oxoisoindoline)benzol-N5-(2-chloro-1-iminoethyl)-1-(1-methyl-benzo[d]imidazol-2-yl)-L-ornithine], for which, in assay [1], the kinact/KI was 398 M⁻¹ s⁻¹ and the “Fold PAD4 Selectivity” value was found to be 1.0 fold. Also, in assay [2], the kinact/KI was 808 M⁻¹ s⁻¹ and the “Fold PAD3 Selectivity” value was 2.0 fold. Further, in assay [3], the inactivation efficiency (kinact/KI) is 2430 M⁻¹ s⁻¹ and the “Fold PAD1 Selectivity” value turned out to be 61 fold. In addition, in assay [4], the kinact/KI is 1220 M⁻¹ s⁻¹ and the “Fold PAD2 Selectivity” value is recorded as 3.1 fold.
On to `CCn1c([C@H](CCCNC(=N)CF)NC(=O)c2cccc3c2C(=O)NC3)nc2ccccc21` [Compound 7e, N1-(3-oxoisoindoline)benzoyl-N5-(2-fluoro-1-iminoethyl)-1-(1-ethyl-benzo[d]imidazol-2-yl)-L-ornithine], for which, in assay [1], the kinact/KI was 31.7 M⁻¹ s⁻¹ and the “Fold PAD4 Selectivity” value turned out to be 1.7 fold. Moreover, in assay [2], the kinact/KI is 18.3 M⁻¹ s⁻¹ and the “Fold PAD3 Selectivity” value worked out at 1.0 fold. For the same compound, in assay [3], the kinact/KI was 675 M⁻¹ s⁻¹ and the “Fold PAD1 Selectivity” value was 37 fold. In assay [4], the Ki is 32.9 µM, the kinact is 0.0337 s⁻¹, the kinact/KI is 1030 M⁻¹ s⁻¹ and the “Fold PAD2 Selectivity” value was found to be 56 fold.
Consider `CCn1c([C@H](CCCNC(=N)CCl)NC(=O)c2cccc3c2C(=O)NC3)nc2ccccc21` [Compound 7f, N1-(3-oxoisoindoline)benzol-N5-(2-chloro-1-iminoethyl)-1-(1-ethyl-benzo[d]imidazol-2-yl)-L-ornithine], for which, in assay [1], the kinact/KI is 210 M⁻¹ s⁻¹ and the “Fold PAD4 Selectivity” value worked out at 1.0 fold. Besides, in assay [2], the kinact/KI was 377 M⁻¹ s⁻¹ and the “Fold PAD3 Selectivity” value was 1.8 fold. In assay [3], the kinact/KI is 2200 M⁻¹ s⁻¹ and the “Fold PAD1 Selectivity” value stood at 10 fold. Besides, in assay [4], the kinact/KI is 1010 M⁻¹ s⁻¹ and the “Fold PAD2 Selectivity” value is 4.8 fold.
As for `CC(C)n1c([C@H](CCCNC(=N)CF)NC(=O)c2cccc3c2C(=O)NC3)nc2ccccc21` [Compound 7g, N1-(3-oxoisoindoline)benzol-N5-(2-fluoro-1-iminoethyl)-1-(1-isopropyl-benzo[d]imidazol-2-yl)-L-ornithine], in assay [1], the kinact/KI was 20.5 M⁻¹ s⁻¹ and the “Fold PAD4 Selectivity” value is recorded as 2.4 fold. Further, in assay [2], the kinact/KI was 8.5 M⁻¹ s⁻¹ and the “Fold PAD3 Selectivity” value stood at 1.0 fold. In addition, in assay [3], the kinact/KI is 104 M⁻¹ s⁻¹ and the “Fold PAD1 Selectivity” value was determined as 12 fold. For the same compound, in assay [4], the kinact/KI was 172 M⁻¹ s⁻¹ and the “Fold PAD2 Selectivity” value was 20 fold.
Turning to `CC(C)n1c([C@H](CCCNC(=N)CCl)NC(=O)c2cccc3c2C(=O)NC3)nc2ccccc21` [Compound 7h, N1-(3-oxoisoindoline)benzol-N5-(2-chloro-1-iminoethyl)-1-(1-isopropyl-benzo[d]imidazol-2-yl)-L-ornithine], in assay [1], the kinact/KI was 35 M⁻¹ s⁻¹ and the “Fold PAD4 Selectivity” value amounted to 1.0 fold. In addition, in assay [2], the kinact/KI is 112 M⁻¹ s⁻¹ and the “Fold PAD3 Selectivity” value came to 3.2 fold. Also, in assay [3], the kinact/KI was 960 M⁻¹ s⁻¹ and the “Fold PAD1 Selectivity” value came to 27 fold. In assay [4], the kinact/KI was 282 M⁻¹ s⁻¹ and the “Fold PAD2 Selectivity” value worked out at 8.0 fold.
As for `COc1cccc2[nH]c([C@H](CCCNC(=N)CF)NC(=O)c3cccc4c3C(=O)NC4)nc12` [Compound 7i, N1-(3-oxoisoindoline)benzol-N5-(2-fluoro-1-iminoethyl)-1-(4-methoxy-1H-benzo[d]imidazol-2-yl)-L-omithine], in assay [1], the kinact/KI is 36.3 M⁻¹ s⁻¹ and the “Fold PAD4 Selectivity” value is given as 1.0 fold. In assay [2], the kinact/KI is 138 M⁻¹ s⁻¹ and the “Fold PAD3 Selectivity” value turned out to be 3.8 fold. Also, in assay [3], the kinact/KI is 1530 M⁻¹ s⁻¹ and the “Fold PAD1 Selectivity” value worked out at 42 fold. Further, in assay [4], the kinact/KI was 292 M⁻¹ s⁻¹ and the “Fold PAD2 Selectivity” value worked out at 8.0 fold.
